This note sets out measurements from patent US7671054B1, “Reverse-turn mimetics and method relating thereto” (Choongwae Pharma Corporation, priority 2001, dated 2010).

SMILES strings stand for the structures.

One assay has as its system HCT116 cells. The assay is described as follows: Growth inhibition assay (MTS). The class given is cell-based. The settings on record: Homo sapiens, HCT-116, 48 h, Example 21; HCT116 cells, 48 hours treatment, MTS; read-out: Growth Inhibition (GI50, uM) HCT116. As for the experimental part:
(§1) SW480 or HCT116 cells were placed into 96 well microplate (10^4cells/well) and incubated for 24 hours at 37° C. 20 μl of [3-(4,5-dimethylthiazol-2-yl)-5-(3-carboxyphenyl)-2-(4-sulfophenyl)-2H-tetrazolium, inner salt](MTS) solution (Promega) was added into each well and the absorbance after 2 hour incubation at 37° C. (negative control) was read. And then, the cells were treated with TCF4 compound at various concentrations for 48 hours. 20 μl of MTS solution (Promega) was added into each well and incubated for 2 hour at 37° C. Cell viability was measured by reading the absorbance at 490 nm using a microplate reader (Molecular device) and cytotoxicity of a compound at each concentration was calculated.
as §1, with “a test” for “TCF4”
On to `C=CC[C@@H]1CC(=O)N2[C@H](CN(Cc3cccc4cn[nH]c34)C(=O)[C@@H]2Cc2ccc(O)cc2)N1C(=O)NCc1ccccc1`, for which the 50% growth inhibitory concentration (GI50) – broadly, the concentration that inhibits growth by half – is 2.3 µM.
In the case of `C=CC[C@@H]1CC(=O)N2[C@H](CN(Cc3cccc4scnc34)C(=O)[C@@H]2Cc2ccc(O)cc2)N1C(=O)NCc1ccccc1`, the GI50 was 1.4 µM.

The same assay, now with this note: Homo sapiens, HCT-116, 48 h, Table 5; HCT116 cells, 48 hours treatment, MTS; read-out: Growth Inhibition (GI50, uM) HCT116.
On to `C=CCN1CC(=O)N2[C@@H](Cc3ccc(O)cc3)C(=O)N(Cc3cc(N(C)C(C)C)cc(C(F)(F)F)c3)C[C@@H]2N1C(=O)NCc1ccccc1` [Compound 126], for which the GI50 worked out at 11.6 ± 3 µM.
With `CC(C)N(C)c1ccccc1CN1C[C@H]2N(C(=O)CN(C)N2C(=O)NCc2ccccc2)[C@@H](Cc2ccc(O)cc2)C1=O` [Compound 30], the GI50 came to 5.4 µM.
The same measure, in the same setting: the result for `CN1CC(=O)N2[C@@H](Cc3ccc(O)cc3)C(=O)N(Cc3cccc4[nH]ncc34)C[C@@H]2N1C(=O)NCc1ccccc1` [Compound 47] reads 12.2 µM; that for `CN1CC(=O)N2[C@@H](Cc3ccc(O)cc3)C(=O)N(Cc3cccc4c3cnn4C)C[C@@H]2N1C(=O)NCc1ccccc1` [Compound 35], 5 ± 0.7 µM; that for `C=CCN1CC(=O)N2[C@@H](Cc3ccc(O)cc3)C(=O)N(Cc3cccc4sc(Cl)nc34)C[C@@H]2N1C(=O)NCc1ccccc1` [Compound 187], 1 ± 0.1 µM.
The same measure, in the same setting: the value for `CN1CC(=O)N2[C@@H](Cc3ccc(O)cc3)C(=O)N(Cc3ccccc3OC(F)(F)F)C[C@@H]2N1C(=O)NCc1ccccc1` [Compound 5] was 2.06 µM; that for `[2H]c1cc(O)cc([2H])c1C[C@H]1C(=O)N(Cc2cccc3ccccc23)C[C@H]2N1C(=O)CN(C)N2C(=O)NCc1ccccc1` [Compound 142] was 3.3 ± 0.4 µM.
Still for that read-out and setting: the value for `CN(C)Cc1cccc(CN2C[C@H]3N(C(=O)CN(C)N3C(=O)NCc3ccccc3)[C@@H](Cc3ccc(O)cc3)C2=O)c1` [Compound 89] was 7.5 ± 1 µM; that for `C=CCN1CC(=O)N2[C@@H](Cc3ccc(O)cc3)C(=O)N(Cc3cccc4cccnc34)C[C@@H]2N1C(=O)NCc1ccccc1` [Compound 100] was 0.4 ± 0.1 µM.
With `C=CCN1CC(=O)N2[C@@H](Cc3ccc(O)cc3)C(=O)N(Cc3ccc4[nH]nnc4c3)C[C@@H]2N1C(=O)NCc1ccccc1` [Compound 108], the GI50 came to 37.9 ± 5.7 µM.
On the same count and under the same terms, the result for `C=CCN1CC(=O)N2[C@@H](Cc3ccc(O)cc3)C(=O)N(Cc3cccc(OCCN4CCOCC4)c3)C[C@@H]2N1C(=O)NCc1ccccc1` [Compound 104] reads less than 0.4 µM; that for `CN1CC(=O)N2[C@@H](Cc3ccc(O)cc3)C(=O)N(Cc3ccccc3N3CCOCC3)C[C@@H]2N1C(=O)NCc1ccccc1` [Compound 72], 10.3 ± 1.6 µM.
Same read-out and setting: the value for `CN1CC(=O)N2[C@@H](Cc3ccc(O)cc3)C(=O)N(Cc3cccc(N4CCCC4)c3)C[C@@H]2N1C(=O)NCc1ccccc1` [Compound 40] was 5.8 ± 0.4 µM.
On the same count and under the same terms, the result for `C=CCN1CC(=O)N2[C@@H](Cc3ccc(O)c(F)c3)C(=O)N(Cc3cccc4scnc34)C[C@@H]2N1C(=O)NCc1ccccc1` [Compound 186] reads 2 ± 0.2 µM; that for `CN1CC(=O)N2[C@@H](Cc3ccc(O)cc3)C(=O)N(Cc3ccc(F)cc3F)C[C@@H]2N1C(=O)NCc1ccc(F)cc1` [Compound 170], 8.6 ± 0.8 µM.
With `C=CCN1CC(=O)N2[C@@H](Cc3ccc(O)cc3)C(=O)N(Cc3ccc4ncsc4c3)C[C@@H]2N1C(=O)NCc1ccccc1` [Compound 114], the GI50 worked out at 1.9 ± 0.2 µM.
Regarding `C=CCN1CC(=O)N2[C@@H](Cc3ccc(O)cc3)C(=O)N(Cc3ccc(Cl)c4scnc34)C[C@@H]2N1C(=O)NCc1ccccc1` [Compound 193], the GI50 amounted to 1.1 ± 0.1 µM.

A further assay relates to SW480 cells. The assay is described as follows: Growth inhibition assay (MTS). The assay is classed as cell-based. As to conditions: Homo sapiens, SW480, 48 h, Example 21; SW480 cells, 48 hours treatment, MTS; read-out: Growth Inhibition (GI50, uM) SW480. As for the experimental part: as §1
as §1, with “a test” for “TCF4”
For the compound `C=CC[C@@H]1CC(=O)N2[C@H](CN(Cc3cccc4cn[nH]c34)C(=O)[C@@H]2Cc2ccc(O)cc2)N1C(=O)NCc1ccccc1`, the GI50 is 2 µM.
Same read-out and setting: the result for `C=CC[C@@H]1CC(=O)N2[C@H](CN(Cc3cccc4scnc34)C(=O)[C@@H]2Cc2ccc(O)cc2)N1C(=O)NCc1ccccc1` reads 1.2 µM.

Staying with this assay, now noted: Homo sapiens, SW480, 48 h, Table 5; SW480 cells, 48 hours treatment, MTS; read-out: Growth Inhibition (GI50, uM) SW480.
For the compound `C=CCN1CC(=O)N2[C@@H](Cc3ccc(O)cc3)C(=O)N(Cc3cc(N(C)C(C)C)cc(C(F)(F)F)c3)C[C@@H]2N1C(=O)NCc1ccccc1` [Compound 126], the GI50 is 19.4 ± 3 µM.
Still for that read-out and setting: the result for `CC(C)N(C)c1ccccc1CN1C[C@H]2N(C(=O)CN(C)N2C(=O)NCc2ccccc2)[C@@H](Cc2ccc(O)cc2)C1=O` [Compound 30] reads 14.1 µM.
The same measure, in the same setting: the result for `CN1CC(=O)N2[C@@H](Cc3ccc(O)cc3)C(=O)N(Cc3cccc4[nH]ncc34)C[C@@H]2N1C(=O)NCc1ccccc1` [Compound 47] reads 6.2 µM; that for `CN1CC(=O)N2[C@@H](Cc3ccc(O)cc3)C(=O)N(Cc3cccc4c3cnn4C)C[C@@H]2N1C(=O)NCc1ccccc1` [Compound 35], 4.7 ± 0.5 µM.
Still for that read-out and setting: the result for `C=CCN1CC(=O)N2[C@@H](Cc3ccc(O)cc3)C(=O)N(Cc3cccc4sc(Cl)nc34)C[C@@H]2N1C(=O)NCc1ccccc1` [Compound 187] reads 1 ± 0.1 µM; that for `CN1CC(=O)N2[C@@H](Cc3ccc(O)cc3)C(=O)N(Cc3ccccc3OC(F)(F)F)C[C@@H]2N1C(=O)NCc1ccccc1` [Compound 5], 2.32 µM.
Take `[2H]c1cc(O)cc([2H])c1C[C@H]1C(=O)N(Cc2cccc3ccccc23)C[C@H]2N1C(=O)CN(C)N2C(=O)NCc1ccccc1` [Compound 142]: the GI50 came to 3.2 ± 0.3 µM.
Still for that read-out and setting: the value for `CN(C)Cc1cccc(CN2C[C@H]3N(C(=O)CN(C)N3C(=O)NCc3ccccc3)[C@@H](Cc3ccc(O)cc3)C2=O)c1` [Compound 89] was 14.6 ± 1.4 µM.
As for `C=CCN1CC(=O)N2[C@@H](Cc3ccc(O)cc3)C(=O)N(Cc3cccc4cccnc34)C[C@@H]2N1C(=O)NCc1ccccc1` [Compound 100], the GI50 worked out at 0.3 ± 0.03 µM.
With `C=CCN1CC(=O)N2[C@@H](Cc3ccc(O)cc3)C(=O)N(Cc3ccc4[nH]nnc4c3)C[C@@H]2N1C(=O)NCc1ccccc1` [Compound 108], the 50% growth inhibitory concentration (GI50) is 24.9 ± 2.2 µM.
Same read-out and setting: the value for `C=CCN1CC(=O)N2[C@@H](Cc3ccc(O)cc3)C(=O)N(Cc3cccc(OCCN4CCOCC4)c3)C[C@@H]2N1C(=O)NCc1ccccc1` [Compound 104] was less than 0.4 µM; that for `CN1CC(=O)N2[C@@H](Cc3ccc(O)cc3)C(=O)N(Cc3ccccc3N3CCOCC3)C[C@@H]2N1C(=O)NCc1ccccc1` [Compound 72] was 10.9 ± 0.6 µM; that for `CN1CC(=O)N2[C@@H](Cc3ccc(O)cc3)C(=O)N(Cc3cccc(N4CCCC4)c3)C[C@@H]2N1C(=O)NCc1ccccc1` [Compound 40] was 6.4 ± 0.5 µM.
Regarding `C=CCN1CC(=O)N2[C@@H](Cc3ccc(O)c(F)c3)C(=O)N(Cc3cccc4scnc34)C[C@@H]2N1C(=O)NCc1ccccc1` [Compound 186], the GI50 worked out at 1.7 ± 0.1 µM.
The same measure, in the same setting: the result for `CN1CC(=O)N2[C@@H](Cc3ccc(O)cc3)C(=O)N(Cc3ccc(F)cc3F)C[C@@H]2N1C(=O)NCc1ccc(F)cc1` [Compound 170] reads 8.9 ± 0.8 µM.
Still for that read-out and setting: the value for `C=CCN1CC(=O)N2[C@@H](Cc3ccc(O)cc3)C(=O)N(Cc3ccc4ncsc4c3)C[C@@H]2N1C(=O)NCc1ccccc1` [Compound 114] was 1.7 ± 0.7 µM; that for `C=CCN1CC(=O)N2[C@@H](Cc3ccc(O)cc3)C(=O)N(Cc3ccc(Cl)c4scnc34)C[C@@H]2N1C(=O)NCc1ccccc1` [Compound 193] was 0.8 ± 0.1 µM.
